This note sets out measurements from patent US4404218A, “Antibiotic SF-2103A substance and process for production thereof” (Meiji Seika Kaisha Ltd., priority 1980, dated 1983).

Where a name gives a salt, the structure may show the parent alone.

For data set [1], the system named is Citrobacter freundii GN 346. Description: synergistic effects with β-lactam antibiotics, paper disk inhibition zone.
For data set [2], the system named is Proteus vulgaris M-8243. The description is as above.
The subject of data set [3] is Proteus rettgeri GN 624. The description is as above.
In data set [4] the test system is Proteus mirabilis GN 310. Nature of the data set: antibacterial activity, agar dilution method. The class given is cell-based. Conditions: GN310, Heart Infusion Agar, read-out: Minimum Inhibitory Concentration. (Agar dilution tests growth on a series of plates holding different concentrations.)
The test system of data set [5] is Proteus morganii Kono. Description: antibacterial activity, agar dilution method. The class given is cell-based. Conditions: Morganella morganii, Heart Infusion Agar, read-out: Minimum Inhibitory Concentration.
Data set [6] relates to Shigella dysenteriae Shigae. Nature of the data set: microbe, parasite or virus in culture. The class given is cell-based. Conditions: read-out: Minimum Inhibitory Concentration.
Data set [7] relates to Klebsiella pneumoniae PCI 602. Description: antibacterial activity, agar dilution method. The class given is cell-based. Conditions: PCI602, Heart Infusion Agar, read-out: Minimum Inhibitory Concentration.
In data set [8] the test system is Staphylococcus aureus Smith. Nature of the data set: antibacterial activity, agar dilution method. The class given is cell-based. Conditions: Heart Infusion Agar, read-out: Minimum Inhibitory Concentration.
For data set [9], the system named is Escherichia coli No. 29. Nature of the data set: antibacterial activity, agar dilution method. The class given is cell-based. The settings on record: Heart Infusion Agar, read-out: Minimum Inhibitory Concentration. The source says:
In this determination, Heart Infusion Agar (produced by Eiken Chemical Co., Ltd.) was used as the medium.

A short description of data set [10]: toxicity (LD50). Conditions: in vivo, mice or rat. The protocol:
[…]. LD50 values by oral administration, intramuscular injection and intravenous injection were all higher than 2,000 mg/kg.

Data set [11] has as its system Bacillus subtilis ATCC 6633. Nature of the data set: antibacterial activity, agar dilution method. The class given is cell-based. Conditions: ATCC6633, Heart Infusion Agar, read-out: Minimum Inhibitory Concentration.
For data set [12], the system named is Citrobacter freundii GN 346. Nature of the data set: antibacterial activity, agar dilution method. The class given is cell-based. The settings on record: GN346, Heart Infusion Agar, read-out: Minimum Inhibitory Concentration.
Data set [13] can be described thus: solubility. The class given is physicochemical.
Data set [14] concerns Staphylococcus aureus 209P. Description: antibacterial activity, agar dilution method. The class given is cell-based. Conditions: Heart Infusion Agar, read-out: Minimum Inhibitory Concentration.
Data set [15] concerns Escherichia coli NIHJ JC-2. Nature of the data set: antibacterial activity, agar dilution method. Conditions: NIHJJC2, Heart Infusion Agar, read-out: Minimum Inhibitory Concentration. The class given is cell-based.
Data set [16] relates to Serratia marcescens No. 1. Nature of the data set: antibacterial activity, agar dilution method. The class given is cell-based. The settings on record: Heart Infusion Agar, read-out: Minimum Inhibitory Concentration.
Data set [17] has as its system Proteus vulgaris GN 76/C-1. Description: antibacterial activity, agar dilution method. The class given is cell-based. Conditions: GN76, Heart Infusion Agar, read-out: Minimum Inhibitory Concentration.
Data set [18] concerns Pseudomonas aeruginosa E-2. Description: antibacterial activity, agar dilution method. The class given is cell-based. Conditions: E2, Heart Infusion Agar, read-out: Minimum Inhibitory Concentration.
Data set [19] has as its target T1, β-lactamase of Citrobacter freundii GN 346 (Citrobacter freundii, UniProt P05193).
T1 construct: cefalotin substrate
Nature of the data set: β-lactamase inhibitory activity, modified Sargent's method. The class given is biochemical. The settings on record: read-out: 50% Inhibitory Concentration (I50) (converted).

Data set [20] deals with Penicillinase. The description is as above. The class given is biochemical. Conditions: at 10 ^.parallel.g/ml; substrate Penicilline G Potassium Salt. From the text: The Sargent's method was partly modified as follows
Reagent A: Enzyme solution properly diluted with 0.1 M phosphate buffer (pH 7.0) as to show 0.6 optical density of consumption of iodine at 490 nm when measured under the undermentioned conditions.
Reagent B: 1.3% Penicillin G potassium salt aqueous solution for penicillinase assay. 1.3% Cefalotin sodium salt aqueous solution for cephalosporinase assay (β-lactamase of Proteus vulgaris M-8243 or Citrobacter freundii GN 346).
Reagent C: 0.1 M phosphate buffer (pH 7.0)
Reagent D: Iodine acetate buffer solution which is prepared by adding 5 ml of stock iodine solution* to 95 ml of pH 4.0 acetate buffer (80 g of anhydrous sodium acetate adjusted to pH 4.0 with acetic acid and made up to 2 liters with distilled water).
A reaction mixture consisted of 0.5 ml of Reagent B and 2 ml of Reagent C is pre-incubated for 5 min at 30° C., and 0.5 ml of Reagent A is added to it and kept for 30 min at 30° C. At the end of reaction, 5 ml of Reagent D is added with rapid mixing and kept for 10 min at 30° C., then the optical density at 490 nm is measured.
As the blank test, an incubation mixture containing 0.5 ml of Reagent B and 2 ml of Reagent C is kept at 30° C. for 30 min, after that 5 ml of Reagent D and 0.5 ml of Reagent A are added to it. Then the optical density is measured in the same way. […]

Data set [21] is described as follows: stability. The class given is physicochemical. From the text: Furthermore, it is difficult to isolate the SF-2103A substance in a free acid form because it is, as described above, very unstable in an acidic state. The SF-2103A substance is therefore obtained as a salt thereof in a pale yellow or white amorphous powder form by freeze-drying a neutral aqueous solution thereof. The purity of the SF-2103A substance obtained varies depending on the potency of the culture broth.

The subject of data set [22] is Escherichia coli GN206. Description: mouse protection test, Experiment I. The settings on record: observed 7 days, groups of five.
[23] abbreviates: β-lactam alone on 8 mm disk (Ampicillin 10 μg, Carbenicillin 2 μg, Cefalotin 2 μg, Cefaloridine 5 μg), 37° C., 16 hours.
Where [24] appears, read: SF-2103A alone, 1 μg per disk, listed as SF-2103A.

T1 sequence (P05193 21-381): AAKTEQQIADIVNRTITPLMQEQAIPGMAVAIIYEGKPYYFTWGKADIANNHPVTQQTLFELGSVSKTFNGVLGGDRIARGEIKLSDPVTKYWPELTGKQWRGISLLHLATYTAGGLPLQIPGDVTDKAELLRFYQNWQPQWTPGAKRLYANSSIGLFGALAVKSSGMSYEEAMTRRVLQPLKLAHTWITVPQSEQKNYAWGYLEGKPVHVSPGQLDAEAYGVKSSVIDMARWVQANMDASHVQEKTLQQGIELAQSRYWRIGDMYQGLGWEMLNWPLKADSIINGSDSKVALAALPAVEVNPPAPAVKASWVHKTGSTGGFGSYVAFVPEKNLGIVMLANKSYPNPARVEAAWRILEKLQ

For `CC1(C)S[C@@H]2[C@H](NC(=O)[C@H](N)c3ccccc3)C(=O)N2[C@H]1C(=O)O` [Ampicillin], the “Diameter of Inhibition Zone” value in [1] (setting [23]), in [2] (setting [23]) and in data set [3] (setting [23]) was 0 mm throughout.

`CC1(C)S[C@@H]2[C@H](NC(=O)C(C(=O)O)c3ccccc3)C(=O)N2[C@H]1C(=O)O` (stereo partly drawn) [Carbenicillin]: the “Diameter of Inhibition Zone” value in [1] (setting [23]), in data set [2] (setting [23]) and in data set [3] (setting [23]) was 0 mm throughout.

For `O=C(Cc1cccs1)N[C@@H]1C(=O)N2C(C(=O)[O-])=C(C[n+]3ccccc3)CS[C@H]12` [Cefaloridine], the “Diameter of Inhibition Zone” value in data set [1] (setting [23]), in [2] (setting [23]) and in data set [3] (setting [23]) was 0 mm in each case.

As to `CC(=O)OCC1=C(C(=O)O)N2C(=O)[C@@H](NC(=O)Cc3cccs3)[C@H]2SC1` [Cefalotin], the “Diameter of Inhibition Zone” value in data set [1] (setting [23]), in data set [2] (setting [23]) and in data set [3] (setting [23]) was 0 mm throughout.

By LD50 is commonly meant the dose expected to kill half of the subjects tested. Read a low LD50 as greater toxicity. As for `CC(OS(=O)(=O)O)C1C(=O)N2C(C(=O)O)=C(S(=O)(=O)O)CC12` (stereo not drawn) [SF-2103A substance sodium salt], the MIC in data set [4] was 50 µg/mL; in data set [5] it was 25 µg/mL; in data set [6], 3.13 µg/mL; in [7], 50 µg/mL; in data set [8] it was 25 µg/mL; in [9], 3.13 µg/mL. For the same molecule, the MIC in data set [11] was determined as 50 µg/mL; in [12], 6.25 µg/mL; in data set [14], 25 µg/mL; in [15], 12.5 µg/mL; in data set [16], 50 µg/mL; in [17], 25 µg/mL. Further, the MIC in [18] was > 100 µg/mL. For the same molecule, the LD50 was > 2000 mg/kg in data set [10] (im, intramuscular injection); > 2000 mg/kg in data set [10] (intravenous injection); > 2000 mg/kg in data set [10] (oral administration). Also, the Solubility entry in data set [13] (in benzene) was “insoluble”; in [13] (in chloroform), “insoluble”; in data set [13] (in ethyl acetate), “insoluble”; in data set [13] (in methanol), “soluble”; in data set [13] (in water), “Freely soluble”.

For the molecule `CC(OS(=O)(=O)O)C1C(=O)N2C(C(=O)O)=C(S(=O)(=O)O)CC12` (stereo not drawn) [SF-2103A substance], the IC50 in data set [19] is 504 nM. Also, the “Inhibitory Ratio” value in [20] is on record as 34.4%. The stability result in [21] (acidic state (free acid form)) is given as “very unstable”; in data set [21] (temperatures higher than room temperature, acidic or alkaline state), “extremely unstable”. In addition, the “Diameter of Inhibition Zone” value in [1] (SF-2103A alone, 1 μg per disk) was “does not show the inhibition zone”; in data set [1] (setting [24]) it was 0 mm; in [2] (SF-2103A alone, 1 μg per disk) it was “does not show the inhibition zone”; in data set [2] (setting [24]), 0 mm; in data set [3] (SF-2103A alone, 1 μg per disk) it was “does not show the inhibition zone”; in data set [3] (setting [24]), 0 mm. For the same molecule, the “survival of infected mice” value in data set [22] (1 mg/mouse subcutaneously twice at one and two hours after intraperitoneal infection) was “four of the five mice survived”; in data set [22] (2 mg/mouse subcutaneously once at one hour after intraperitoneal infection), “two of the five mice survived”.
